Results from US20050215562A1, “Methods for treating protein aggregation disorders” (priority 2003, published 2005).

Legend:
[1] = biological target: T1, NAC peptide (Homo sapiens, UniProt P37840); assay: Circular dichroism (CD) analysis of NAC peptide conformation after incubation with test compounds (fibrillogenesis assay); assay type: biochemical; design: key to CD Result (NAC conformation observed): Random Coil: signifies that the NAC in the sample was observed to have been maintained in its original random coil conformation indicating that the compound coincubated with NAC is active; signifies that the compound was not able to prevent the shift from random coil to β-sheet; β-sheet/β-turn: signifies that the compound was not able to prevent the shift from random coil to β-sheet; Transition: signifies that the NAC was observed to be in the process of converting from random coil to β-sheet indicating that the compound was able to slow down the conformational change and indicates activity; details: for CD Result (NAC conformation observed): 125 μL of 40 μM NAC peptide with 125 μL of 200 μM test compound, pH 7.4, 37° C., conformations over repeated trials; for Activity (CD): active if it prevents the transition to β-turn/β-sheet in 50% or more of the trials; for Activity: active trials / trials: number of CD trials in which transition to β-turn/β-sheet was prevented, over trials run
T1 construct: a 35 amino acid peptide corresponding to residues 61 to 95 of the α-synuclein protein; made in house; host or cells: chemical solid-phase peptide synthesis (Fmoc), not expressed
Protocol: 2 mM Solutions were prepared in TBSA buffer (Tris 0.02 M, NaCl 0.15 M, NaN3 0.005%, pH 7.4) and stored at 4° C. For the assays, compounds were diluted to the desired concentrations in TBSAE buffer (Tris 0.02 M, NaCl 0.15 M, NaN3 0.005%, EDTA 100 μM, pH 7.4) and combined with the NAC peptides.
Fibrillogenesis assays were employed to identify test compounds that inhibit NAC's ability to assemble into fibers. Following removal of HFIP by evaporation under N2 gas, 20 μM NAC peptide is incubated in the assay buffer (0.02M Tris, 0.15 M NaCl, 0.005% NaN3, 100 uM EDTA) at 37° C. in a Perkin-Elmer HTS 7000 plus microplate reader with shaking for 1 minute every twenty minutes. The presence of fibers can be monitored by three different methods.
The following assays were set up in clear polystyrene 96 well microplates by combining 125 μL of 40 μM NAC peptide with 125 μL of 200 μM test compound in 0.02M Tris, 0.15 M NaCl, 0.005% NaN3, […]. The microplates were sealed with a plastic sheet and incubated at 37° C. in a Perkin-Elmer HTS 7000 microplate reader with shaking for 1 minute, every 20 minutes. • Thioflavin T Analysis. To perform this assay 5 μM Thioflavin T is added to the NAC assembly conditions described above. The fluorescence is measured at 430 excitation/485 emission every twenty minutes with a Perkin-Elmer HTS microplate reader for the duration of the assay. […] This assay allows for the identification of compounds that can inhibit this increase in fluorescence upon incubation. • Turbidity Analysis. Alternatively, NAC peptide that has been incubated with test compounds in the appropriate assembly conditions can be analyzed by reading the absorbance at 405 nm to follow the turbidity of the solution which is also an indication of the formation of aggregates. • Circular Dichroism (CD) Analysis. […] This assay allows for the identification of compounds that can prevent NAC from adopting a β-sheet/β-turn conformation upon incubation. • At the appropriate time point, during the incubation, the test solutions were transferred to 0.1-cm path length quartz cuvettes and scanned by CD spectroscopy between 190 and 260 nm, with a resolution of 0.1 nm and a bandwidth of 1 nm using a Jasco J-715 spectropolarimeter at 37° C. […] At the time point at which CD scans are performed a 3 μl aliquot is removed from the sample, spotted onto a Formvar grid and then negatively stained with 4% uranyl acetate. The grids were examined for the presence of fibrils and amorphous aggregates using a JOEL 2000 transmission electron microscope at a 25,000 × magnification. This assay can be used to confirm the absence of fibers in the presence of compounds which inhibit NAC assembly by ThT and CD. The final results were obtained by averaging 10 complete sectors.
For compounds that have been tested multiple times, a compound is classified as active if it prevents the transition to β-turn/β-sheet in 50% or more of the trials.

[2] = biological target: T1, NAC peptide; assay: Binding of compounds to NAC peptide by electrospray mass spectrometry; details: area of bound NAC-compound complex peaks divided by area of unbound NAC peaks; 5:1 compound:NAC, pH 7.4, 6.6% EtOH
Protocol: The ability of the compounds of the present invention to bind to NAC peptide in aqueous solution was evaluated. The binding ability correlates to the intensities of the peptide-compound complex peaks observed by the Electrospray Mass Spectrum. Millipore distilled deionized water was used to prepare all aqueous solutions. For pH determination a Beckman (Φ36 pH meter fitted with a Corning Semi-Micro Combination pH Electrode was employed.
The optimal cone voltage was determined to be 20V.
Mass spectrometry: Mass spectrometric analysis was performed using a Waters ZQ 4000 mass spectrometer equipped with a Waters 2795 sample manager. MassLynx 4.0 (earlier by MassLynx 3.5) was used for data processing and analysis. Test compounds were mixed with disaggregated peptides in aqueous media (6.6% EtOH) at a 5:1 ratio (20 μM NAC: 100 μM of test compound or 40 μM NAC : 200 μM of test compound). The pH of the mixture was adjusted to 7.4 (±0.2) using 0.1% NaOH (3-5 μL). Periodically, NAC peptide solution at 20 μM or 40 μM was also prepared in the same fashion and run as control. The spectra were obtained by introducing the solutions to the electrospray source by direct infusion using a syringe pump at a flow rate of 25 μl/min, and scanning from 100 to 2100 Da in the positive mode. The scan time was 0.9 sec per scan with an inter-scan delay of 0.1 sec and the run time was 5 min for each sample. All the mass spectra were sum of 300 scans. The desolvation and source temperature was 70° C. and the cone and capillary voltage were maintained at 20 V and 3.2 kV respectively.
The total area under the peaks for the bound NAC-compound complex divided by total area under the peaks for unbound NAC was determined for each compound tested.

| SMILES | CD Result (NAC conformation observed) [1] | Activity (CD) [1] | Activity: active trials / trials [1] | Binding Strength [2] |
| --- | --- | --- | --- | --- |
| O=S(=O)(O)CCCCS(=O)(=O)O [compound 1] | Random Coil β-sheet | Yes | ½ | − (None; when the total binding is between 30% and 0%) |
| O=S(=O)(O)OCCCOS(=O)(=O)O [compound 2] | Random Coil TRansition | Yes | 2/2 | − (None; when the total binding is between 30% and 0%) |
| NCCOS(=O)(=O)O [compound 3] | β- turn/βsheet | No | 0/2 | − (None; when the total binding is between 30% and 0%) |
| NCCCOS(=O)(=O)O [compound 4] | β-turn | No | 0/2 | ++ (Moderate; when the total binding is between 120% and 70%) |
| NCCS(=O)(=O)O [compound 5] | β-sheet | No | 0/2 | + (Weak; when the total binding is between 70% and 30%) |
| NCCCCS(=O)(=O)O [compound 6] | β-turn transition | Yes | ½ | +++ (Strong; when the total binding is 120% and higher) |
| NCCCCS(=O)(=O)O [compound 7] | β- turn/βsheet Random coil Transition | Yes | 2/4 | ++ (Moderate; when the total binding is between 120% and 70%) |
| CCCCCCCCCCCCS(C)(C)CCCS(C)(=O)=O [compound 9] | Random Coil | Yes | 4/4 | − (None; when the total binding is between 30% and 0%) |
| CCCCCCCCCCCCCCS(C)(C)CCCS(=O)(=O)O [compound 10] | Random Coil | Yes | 5/5 | + (Weak; when the total binding is between 70% and 30%) |
| O=S(=O)(O)CCCNCCc1c[nH]c2ccccc12 [compound 17] | β-turn Transition | No | ⅓ |  |
| O=C1NCCCC[C@@H]1NCCCS(=O)(=O)O [compound 18] | β-sheet/β- turn | No | 0/2 |  |
| CC(C)(C)NCCCS(C)(=O)=O [compound 19] | Random Coil β-turn | Yes | ½ |  |
| CCCCCCNCCCS(=O)(=O)O [compound 20] | β-turn | No | 0/2 |  |
| O=S(=O)(O)CC(O)CNC1CCCCC1 (stereo not drawn) [compound 21] | β-sheet/β- turn Transition | No | ⅓ |  |
| O=S(=O)(O)CCCNC(Cc1ccccc1)c1ccccc1 (stereo not drawn) [compound 22] | Transition β-turn | No | ⅔ |  |
| CC(CCNC12C[C@H]3C[C@@H](C1)C[C@@H](C2)C3)S(=O)(=O)O (stereo partly drawn) [compound 23] | Random Coil β-sheet | Yes | ½ |  |
| O=S(=O)(O)CC(O)CNC12C[C@H]3C[C@@H](C1)C[C@@H](C2)C3 (stereo partly drawn) [compound 24] | Random Coil | Yes | 2/2 |  |
| O=S(=O)(O)CC(O)CNC1C2CC3CC(C2)CC1C3 (stereo not drawn) [compound 25] | Random Coil | Yes | 2/2 |  |
| O=S(=O)(O)CCCNC12C[C@H]3C[C@@H](C1)C[C@@H](C2)C3 [compound 26] | Transition β-turn | Yes | ½ |  |
| CCCC(CO)NCCC(C)S(=O)(=O)O (stereo not drawn) [compound 27] | β-sheet/β- turn | No | 0/2 |  |
| CC(C)(C)NCCCCS(=O)(=O)O [compound 28] | β-turn/β- sheet | No | 0/3 |  |
| CC(CC[N+]12CCC(CC1)CC2)S(=O)(=O)O (stereo not drawn) [compound 29] | β-turn | No | 0/3 |  |
| O=S(=O)(O)CCCC[N+]12CCC(CC1)CC2 [compound 30] | Random Coil β-sheet/β- turn | Yes | 2/4 |  |
| O=S(=O)([O-])CC(O)C[N+]12CCC(CC1)CC2 (stereo not drawn) [compound 31] | β-sheet/β- turn α-helix | No | ⅓ |  |
| O=S(=O)(O)CCC[N+]12CCC(CC1)CC2 [compound 32] | β-sheet/β- turn Random coil | No | ¼ |  |
| CC(C)CCNCC(O)CS(=O)(=O)O (stereo not drawn) [compound 33] | Random Coil β-sheet/β- turn | Yes | ½ |  |
| CC1CC(NCCCS(=O)(=O)O)CC(C)(C)C1 (stereo not drawn) [compound 34] | Random Coil β-sheet | Yes | ½ |  |
| CC(C)(C)C1CCC(NCCCS(=O)(=O)O)CC1 (stereo not drawn) [compound 35] | β-turn | No | 0/2 |  |
| O=C[C@H](Cc1ccccc1)NCCCS(=O)(=O)O [compound 36] | β-sheet | No | 0/1 |  |
| O=C[C@@H](Cc1ccccc1)N(O)CCCS(=O)(=O)O [compound 37] | β-sheet Transition | Yes | ½ |  |
